Measurements from patent US7223777B2, “Compounds for the management of aging-related and diabetic vascular complications, process for their preparation, therapeutic and cosmetic uses thereof” (Torrent Pharmaceuticals Ltd., priority 2001, dated 2007).

How the values were obtained:
AGE-BSA = biological target: T1, AGE-BSA (Bos taurus, UniProt P02769); test: In-vitro screening for AGE-breaking activity (AGE-BSA incubated with compound; ELISA / gel permeation chromatography); format: biochemical, bovine; conditions: 37° C., 24 hours
T1 construct: Bovine serum albumin (fraction V) (BSA); from tissue; host or cells: bovine serum (fraction V); own knowledge: fraction V is the albumin fraction of plasma/serum
Procedure: Fluorescence was used as the criteria to monitor the increased AGE formation.
160 mg/ml of protein, bovine serum albumin, BSA and 1.6M glucose sugar were dissolved in phosphate buffered saline, PBS. Sodium azide was added at 0.02% concentration as a preservative. The solution was filtered asceptically through a […] filter and kept for aging at 37° C. for 16 weeks. After 16 weeks the solution was dialyzed against PBS, aliquoted and stored at −20° C.
To determine the AGE breaking activity, 10 μg/ml of the 16 weeks AGE-BSA was incubated with different concentrations of the test compounds at 37° C. for 24 hours and AGE breaking activity of the test compounds by ELISA was determined.
• 1. Different concentrations of 16 weeks AGE-BSA were coated on a microtiter plate as standard. Each concentration is coated in triplicates. • 2. The test samples were coated on microtiter plate at a concentration of 5 ng. to 20 ng per well in triplicates. • 3. The plate was incubated at 37° C. for one hour. • 4. After incubation the plate was washed with PBST (PBS with 0.05% Tween 20). • 5. Blocking with 5% skimmed milk in PBS at 37° C. for one hour was done. • 6. The plate was washed with PBST. • 7. Primary antibody against AGE-BSA was added and the plate is incubated at 37° C. for one hour. • 8. The plate was washed with PBST. • 9. Secondary antibody anti rabbit HRPO (Horse-Radish Per Oxidase) conjugate was added and the plate is incubated at 37° C. for one hour. • 10. The plate was washed with PBST. • 11. Colour development with OPD (orthophenylenediamine dihydrochloride) and hydrogen peroxide was done. • 12. OD (optical density) at (450 nm reading –620 nm reading) was measured after incubation at 37° C. for 15 minutes with Microplate ELISA Reader.
The breaker activity of the compounds were determined by the following formula:
[formula] OD450-620Control=Absorbance of 20 ng AGE-BSA after incubation at 37° C. for 24 hours without test compound. OD450-620Test=Absorbance of 20 ng AGE-BSA after incubation at 37° C. for 24 hours with required concentration of test compound.
Gel Permeation Chromatography based method was used to determine AGE breaking activities of the compounds.
Separation by Gel Permeation Chromatography (GPC) depends on differences in the size, more precisely the hydrodynamic volume, of the proteins in a sample. […] The pores of a column particle are differentially accessible to smaller particles, depending on their size. This volume of the column is called (V1). The total accessible volume (Vt) is the sum of the volume outside the particles (V0) and the volume accessible inside the particles (V1): Vt=V0+Vi Therefore, in a typical Gel Permeation Chromatography (GPC) run, high molecular weight molecules elute at a lower retention time whereas lower molecular weight molecules are retained for longer time. For the purpose of quantification, the area under the curve for the respective molecule is recorded. The same principle has been applied in the in vitro screening of the molecules of instant invention. Highly cross-linked Advanced Glycosylated Endproducts (AGE) were prepared in vitro by incubating Bovine Serum Albumin (BSA) with glucose for a period of 16 weeks. […] The reduction in the area of AGE-BSA incubated in the presence of AGE breaker as compared to that of control AGE BSA (incubated in absence of AGE breaker) gives an estimate of the AGE breaker activity of the drug. In order to check the non-specific activity of the molecule, a similar experiment was repeated with BSA as well. Methodology:
A known concentration of 16-week AGE-BSA was incubated with and without a predetermined concentration of the drug at 37° C. for 24 hours in clean transparent glass test tubes. The solution without drug served as the control and the solution containing the drug was treated as the test sample.
Gel permeation chromatography was performed on equal volumes of control AGE-BSA preparation and solution of AGE-BSA treated with drug. […]

[1] = system: Maillard reaction in-vitro (BSA, ribose); test: Test for AGE inhibiting activity (Maillard reaction in-vitro, BSA + ribose, fluorescence); format: biochemical, bovine; conditions: 37° C., 7 days
Procedure: The following method was used to determine the inhibitory effect of the test compounds on Maillard reaction in-vitro. This method is adopted from U.S. Pat. No. 5,514,676 and European Patent No. 0 339 496 A2.
A solution of Bovine Serum Albumin (BSA), ribose and test compound was prepared in Phosphate Buffer Saline (PBS, pH 7.4) so as to have final concentration of BSA and ribose at 10 mg/ml and 500 mM respectively. Addition of compound was done in aseptic conditions. Sodium azide (0.02%) was also added in this solution in order to prevent microbial growth. A separate tube containing BSA, ribose and sodium azide in the same concentration and buffer as above, but without any test compound, was also incubated as positive control. After incubation at 37° C. for 7 days, 40 micro liter sample from each tube was removed and diluted with PBS to have final concentration of BSA at 1 mg/ml. The fluorescence of all the samples was measured at Excitation Maximum of […] and the Emission Maximum of […] using f-MAX Fluorimeter (Molecular Device, USA). In order to study the effect of test compound on fluorescence, freshly prepared compound solution was mixed with previously incubated positive control (i.e. BSA+ribose), so as to achieve same concentration of all the components as that of test samples.
The percent inhibition of test compound was measured as follows:
[formula] Where F3=Fluorescence of BSA+ribose+compound, F4 is fluorescence of incubated (BSA+ribose)+freshly added test compound.

[2] = Free radical scavenging activity on ABTS radical cation; format: biochemical
Procedure: This method measures the relative ability of free radical scavenging substances to scavenge the ABTS.^+ i.e. 2,2-Azino-bis-(3-ethyl benzo thiazoline-6-sulfonate) radical cation as compared to a standard amount of standard or free radical scavengers antioxidants. Incubation of ABTS with Peroxidase (metmyoglobin) and hydrogen peroxide results in the production of radical cation ABTS.^+. This species is blue-green in colour and can be detected at 730 nm. Antioxidants or free radical scavengers in the added sample that causes suppression of the color to a degree that is proportional to their concentration.
Preparation of Buffer Solutions: • a. Phosphate Citrate Buffer (pH 5.0): 48.5 ml of 0.1M citric acid with sufficient 0.2M disodium hydrogen phosphate to produce 100 ml. • b. Phosphate Buffer Saline (PBS): Dissolve 40.0 g of NaCl, 1.0 g of KCl, 1.0 g of KH2PO4 and 3.05 g of Na2HPO4 in 1 liter milli-Q water. Dilute 200 ml of above solution to 1 liter with milli-Q water (pH 7.4–7.6).
Preparation of ABTS Stock Solution (2 mM): • 1 tablet (10 mg) was dissolved in phosphate citrate buffer (pH 5.0) to give a 2 mM solution.
Preparation of Horse Radish Peroxidase Working Solution: • 0.1 mg was dissolved in 10 ml of phosphate buffer saline, 1 ml of this solution was diluted to 100 ml with PBS.
Preparation of Hydrogen Peroxide (1.08 mM) Solution: • 12 μl of Hydrogen Peroxide (30% w/v) was diluted to 100 ml with PBS.
Preparation of Drug Solutions: • 0.1 mM of stock solution of the drug was prepared which was serially diluted in PBS to get 0.05 mM, 0.025 mM and 0.0125 mM solutions.
Preparation of ABTS Radical Stock Solution: • To 2 ml of ABTS stock solution, 1 ml of horseradish Peroxidase working solution was added. • As soon as 2 ml of Hydrogen peroxide solution was added to the above solution, blue-green colour of the ABTS radicals appeared. This solution was incubated at 30° C. for 30 min in order to ensure the completion reaction. Make up the volume to 10 ml with PBS.
Preparation of Control Solution: • 900 μl of ABTS radical stock solution were added to an eppendorf tube. To it were added 100 μl of PBS solution.
Preparation of Test Solution: • 900 μl of ABTS radical stock solutions were added to different eppendorf tubes. To it were added 100 μl of various concentrations of drug solution.
Measurement of Absorbance (O.D): • The absorbance of control and test samples was recorded immediately at 730 nm taking PBS as blank.
Calculation: • The percent antioxidant activity was calculated according to the formula: % Antioxidant activity=100−[O.D of test sample/O.D of control×100]

T1 sequence (P02769 25-607): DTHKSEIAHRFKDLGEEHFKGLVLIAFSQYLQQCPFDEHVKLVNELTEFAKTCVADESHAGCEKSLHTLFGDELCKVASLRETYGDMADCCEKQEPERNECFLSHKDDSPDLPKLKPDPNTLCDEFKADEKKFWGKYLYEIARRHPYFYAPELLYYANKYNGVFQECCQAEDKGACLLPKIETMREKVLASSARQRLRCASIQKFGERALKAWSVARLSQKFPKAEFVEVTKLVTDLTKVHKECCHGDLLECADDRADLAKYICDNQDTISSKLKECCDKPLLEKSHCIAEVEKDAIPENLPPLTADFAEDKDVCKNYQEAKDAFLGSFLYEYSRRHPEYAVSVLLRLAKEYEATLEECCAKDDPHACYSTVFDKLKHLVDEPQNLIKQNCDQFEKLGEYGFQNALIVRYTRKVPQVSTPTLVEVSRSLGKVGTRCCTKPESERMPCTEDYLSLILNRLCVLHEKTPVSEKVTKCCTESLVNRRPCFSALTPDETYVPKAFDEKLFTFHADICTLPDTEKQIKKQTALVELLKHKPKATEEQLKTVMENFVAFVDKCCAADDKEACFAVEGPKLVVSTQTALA

For “1-(2-Thien-2′-yl-2-oxoethyl)-3-[(1-cyclohexyl-3-(3,5-dimethylpyrazol-1-yl)methyl)pyrazol-5-yl]pyridinium chloride [Compound 35]”, the “% Breakage” value (AGE-BSA; 10 mM compound) was 66.66%, the “% Inhibition (Day 7)” value ([1]; 10 mM compound) was 73.8% and the “Relative Free Radical Scavenging Activity (%) on ABTS” value ([2]; 12.5 μM) was 28.27%. For the same molecule, the “Relative Free Radical Scavenging Activity (%) on ABTS” value ([2]; 25.0 μM) was 39.78%, the “Relative Free Radical Scavenging Activity (%) on ABTS” value ([2]; 50.0 μM) was 58.34% and the “Relative Free Radical Scavenging Activity (%) on ABTS” value ([2]; 100.0 μM) was 74.36%.

In the case of `Cc1cc(C)n(Cc2cc(-c3ccc[n+](CC(=O)c4cccs4)c3)n(-c3ccccn3)n2)n1.[Br-]` [Compound 6, 1-(2-Thien-2′-yl-2-oxoethyl)-3-[3{(3,5-dimethylpyrazol-1-yl)methyl-1-(2-pyridyl)}pyrazol-5-yl]pyridinium bromide], the “% Inhibition (Day 7)” value ([1]; 10 mM compound) is reported as 66%, the “Relative Free Radical Scavenging Activity (%) on ABTS” value ([2]; 12.5 μM) is reported as 21.99% and the “Relative Free Radical Scavenging Activity (%) on ABTS” value ([2]; 25.0 μM) is reported as 40.56%. The “Relative Free Radical Scavenging Activity (%) on ABTS” value ([2]; 50.0 μM) was 61.68% and the “Relative Free Radical Scavenging Activity (%) on ABTS” value ([2]; 100.0 μM) was 81.04%.

With `O=C(C[n+]1cccc(-c2cc(-c3ccc[n+](CC(=O)c4cccs4)c3)[nH]n2)c1)c1cccs1.[Br-].[Br-]` [Compound 10, 3,5-Bis-[1-(2-thien-2′-yl-2-oxoethyl)-pyridinium-3-yl]-pyrazole dibromide] the “% Inhibition (Day 7)” value ([1]; 2.5 mM compound) was 75%, the “Relative Free Radical Scavenging Activity (%) on ABTS” value ([2]; 12.5 μM) was 41.01% and the “Relative Free Radical Scavenging Activity (%) on ABTS” value ([2]; 25.0 μM) was 72.97%. For the same molecule, the “Relative Free Radical Scavenging Activity (%) on ABTS” value ([2]; 50.0 μM) was 85.75% and the “Relative Free Radical Scavenging Activity (%) on ABTS” value ([2]; 100.0 μM) was 87.04%.

In the case of `O=C(C[n+]1cccc(-c2cc(Cc3ccccc3)nn2-c2ccccc2)c1)c1cccs1.[Cl-]` [Compound 11, 1-(2-Thien-2′-yl-2-oxoethyl)-3-[(1-phenyl-3-phenylmethyl)pyrazol-5-yl]-pyridinium chloride], the “% Breakage” value (AGE-BSA; 5 mM compound) is reported as 76.84%, the “% Inhibition (Day 7)” value ([1]; 1.25 mM compound) is reported as 32.9% and the “Relative Free Radical Scavenging Activity (%) on ABTS” value ([2]; 12.5 μM) is reported as 26.78%. The “Relative Free Radical Scavenging Activity (%) on ABTS” value ([2]; 25.0 μM) was 45.74%, the “Relative Free Radical Scavenging Activity (%) on ABTS” value ([2]; 50.0 μM) was 70.61% and the “Relative Free Radical Scavenging Activity (%) on ABTS” value ([2]; 100.0 μM) was 86.46%.

In the case of `Cc1cc(C)n(Cc2cc(-c3ccc[n+](CC(=O)c4cccs4)c3)n(-c3ccccc3)n2)n1.[Cl-]` [Compound 13], the “% Breakage” value (AGE-BSA; 10 mM compound) is reported as 81.05%, the “% Inhibition (Day 7)” value ([1]; 10 mM compound) is reported as 57% and the “Relative Free Radical Scavenging Activity (%) on ABTS” value ([2]; 12.5 μM) is reported as 23.58%. For the same molecule, the “Relative Free Radical Scavenging Activity (%) on ABTS” value ([2]; 25.0 μM) was 41.78%, the “Relative Free Radical Scavenging Activity (%) on ABTS” value ([2]; 50.0 μM) was 64.01% and the “Relative Free Radical Scavenging Activity (%) on ABTS” value ([2]; 100.0 μM) was 82.54%.

For `Cc1cc(C)n(Cc2cc(-c3ccc[n+](CC(=O)c4ccccc4)c3)[nH]n2)n1.[Cl-]` [Compound 17, 1-(2-Phenyl-2-oxoethyl)-3-[(3-(3,5-dimethylpyrazol-1-yl)methyl)pyrazol-5-yl]-pyridinium chloride], the “% Breakage” value (AGE-BSA; 10 mM compound) was 52.27%, the “% Inhibition (Day 7)” value ([1]; 2.5 mM compound) was 57.43% and the “Relative Free Radical Scavenging Activity (%) on ABTS” value ([2]; 12.5 μM) was 28.34%. For the same molecule, the “Relative Free Radical Scavenging Activity (%) on ABTS” value ([2]; 25.0 μM) was 54.43%, the “Relative Free Radical Scavenging Activity (%) on ABTS” value ([2]; 50.0 μM) was 83.56% and the “Relative Free Radical Scavenging Activity (%) on ABTS” value ([2]; 100.0 μM) was 94.81%.

With `Cc1cc(C)n(Cc2cc(-c3ccc[n+](CC(=O)c4ccc(C)s4)c3)[nH]n2)n1.[Cl-]` [Compound 18, 1-(2-(5-Methyl-2-thienyl)-2-oxoethyl)-3-[(3,-(3,5-dimethylpyrazol-1-yl)methyl)pyrazol-5-yl]pyridinium chloride] the “% Breakage” value (AGE-BSA; 5 mM compound) was 52.97%, the “% Inhibition (Day 7)” value ([1]; 5 mM compound) was 79% and the “Relative Free Radical Scavenging Activity (%) on ABTS” value ([2]; 12.5 μM) was 28.65%. The “Relative Free Radical Scavenging Activity (%) on ABTS” value ([2]; 25.0 μM) was 53.8%, the “Relative Free Radical Scavenging Activity (%) on ABTS” value ([2]; 50.0 μM) was 84.41% and the “Relative Free Radical Scavenging Activity (%) on ABTS” value ([2]; 100.0 μM) was 95.32%.

In the case of `O=C(C[n+]1cccc(-c2cc(COc3ccccc3)nn2-c2ccccc2)c1)c1cccs1.[Cl-]` [Compound 29, 1-(2-Thien-2′-yl-2-oxoethyl)-3-[(1-phenyl-3-phenoxymethyl)pyrazol-5-yl]pyridinium chloride], the “% Inhibition (Day 7)” value ([1]; 5 mM compound) is reported as 55.22%, the “Relative Free Radical Scavenging Activity (%) on ABTS” value ([2]; 12.5 μM) is reported as 31.82% and the “Relative Free Radical Scavenging Activity (%) on ABTS” value ([2]; 25.0 μM) is reported as 46.84%. The “Relative Free Radical Scavenging Activity (%) on ABTS” value ([2]; 50.0 μM) was 58.84% and the “Relative Free Radical Scavenging Activity (%) on ABTS” value ([2]; 100.0 μM) was 55.22%.
